Experimental data: US20250154212A1, “METHOD OF DISRUPTING MEMORY AND LIPOPEPTIDE FOR USE IN SUCH METHOD” (The Research Foundation for The State University of New York, priority 2023, published 2025)

Target: T1, KIBRA-PKMζ[PKCι/λ-P291Q;F297S] interaction (Homo sapiens, UniProt Q05513, F480S/P474Q)
T1 construct: expressed in transfected cells; host or cells: HEK293T
T1 sequence (Q05513 184-592 P474Q/F480S): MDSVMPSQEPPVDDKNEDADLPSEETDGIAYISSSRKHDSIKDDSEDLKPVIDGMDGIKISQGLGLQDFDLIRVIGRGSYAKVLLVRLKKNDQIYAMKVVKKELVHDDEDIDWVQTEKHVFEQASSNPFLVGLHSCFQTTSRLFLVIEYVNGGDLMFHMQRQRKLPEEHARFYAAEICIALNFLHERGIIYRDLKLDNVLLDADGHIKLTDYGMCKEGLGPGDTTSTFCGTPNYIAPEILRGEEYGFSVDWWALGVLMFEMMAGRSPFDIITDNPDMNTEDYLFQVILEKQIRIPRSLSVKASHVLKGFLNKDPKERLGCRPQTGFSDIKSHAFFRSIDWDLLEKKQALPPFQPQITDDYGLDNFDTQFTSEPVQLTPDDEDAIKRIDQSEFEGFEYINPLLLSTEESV
Test: BiFC assay of KIBRA with mutant PKMζ[PKCι/λ-P291Q;F297S] in HEK293T cells
Assay type: cell-based
Conditions: 10 μM
Description: KIBRA-PKMζ BiFC was performed as previously described (28), using pVen1-FLAG-KIBRA and pVen2-HA-PKMζ, in which PKMζ was cloned between EcoR1 and BamH1 sites. The constructs pVen1 and pVen2 encode the N-terminus (amino acids 1-154) and C-terminus (amino acids 155-238) of the Venus protein, respectively, and the Venus fragments were on the N-terminal of the fusion proteins. pVen2-HA-PKMζ[PKCι/λ-P291Q;F297S] was generated by site-directed mutagenesis using forward-cctggagAagcAAatceggatcccccggtCcctgtccgte and reverse-gacggacaggGaccgggggatccggatTTgctTctccagg primers and the QuickChange II XL Site-Directed Mutagenesis Kit (Agilent Technologies), following manufacturer's instructions. Additional pVen2-HA-PKC isoforms and pVen2-HA-CaMKIIα in the pVen2-HA vector were generated by cloning the N-terminus of the coding sequence of each kinase (table S1) to obtain an in-frame fusion at the C-terminus of the pVen2-HA. Human versions of KIBRA and kinases were used, and all PCR amplified sequences and constructs were verified by DNA sequencing.
HEK293T cells were cultured in Dulbecco's Modified Eagle's Medium supplemented with 10% heat-inactivated fetal bovine serum, 100 U/ml penicillin, […] streptomycin, 2 mM glutamine, and 10 mM HEPES in a T75 tissue culture flask with canted neck and ventilated cap. […]

effect on KIBRA interaction with mutated PKMζ[PKCι/λ-P291Q;F297S] (BiFC): does not inhibit | effect on KIBRA interaction with mutated PKMζ[PKCι/λ-P291Q;F297S] (BiFC) (listed as z-stat): has no effects
Compound: O=S(=O)(O)c1cc(O)c2c(S(=O)(=O)O)cc(S(=O)(=O)O)cc2c1 [ζ-stat, 1-naphthol-3,6,8-trisulphonic acid]
